The subject of one assay is ERK1 (p44). Put plainly: ERK1 (p44) activation in NS20Y cells. Type of assay: cell-based, mouse. As for the experimental part:
(§1) Cell stimulation, immunoblotting, and immunoprecipitation: Cells or neurons are grown in 6-well or 12-well plates to 80-90% confluence. The cells are starved in serum-free DMEM overnight, and then incubated with receptor agonists at 37° C. for the indicated durations. In some experiments, signaling inhibitors are added 45 minutes before simulation. Incubation is terminated by placing the tissue culture cluster on ice and rapidly aspirating the medium, followed by the addition of ice-cold RIPA^+ buffer (50 mM Tris-HCl, pH 7.5, 150 mM NaCl, 1% NP-40, 0.5% deoxycholate, 0.1% SDS, 1 mM NaVO3, and protease inhibitor (Calbiochem, San Diego, Calif.)) and incubation for 15 minutes with shaking. After centrifugation (14,000×g at 4° C. for 15 minutes), the supernatant is collected and the protein concentration is measured and adjusted using RIPA^+ buffer. Samples (30 μl) with equal amounts of protein mixed with Laemmli loading buffer are denatured at 70° C. for 10 minutes and separated by SDS-PAGE. […] The proteins are transferred to PVDF membrane (Millipore), detected with the primary antibodies (including anti-active ERK; anti-p-Tyr clone 4G10, Upstate; anti-TH; anti-DAT, sigma, anti-β-tubulin, etc.) and visualized with the SuperSignal™ West Pico chemiluminescent kit (Pierce Biotechnology, Rockford, Ill.). The intensity of bands is quantified using ImageQuant™ 5.2 (Amersham). […]

The next assay deals with ERK2 (p42). Nature of the assay: ERK2 (p42) activation in NS20Y cells. The class given is cell-based, mouse. As for the experimental part: as §1
In assay [1] the test system is ERK. Nature of the assay: ERK phosphorylation in primary rat SNc dopaminergic neurons, p-ERK staining. The class given is cell-based. Particulars: primary rat SNc neuron culture, A9 1 μM, 1 hour. The procedure:
Primary cultures of rat embryonic SNc neurons were stimulated with vehicle (NT) or A9 (1 μM) for 1 hour and then stained for tyrosine hydroxylase (TH) and phospho-ERK (p-ERK). Images were digitally captured with an Olympus CX640 fluorescence microscope.
Primary Neuronal Cultures: The substantia nigra or striatal region is dissected from 4 day-old Sprague-Dawley rats and incubated in minimum essential medium (MEM) containing 20 U/ml papain for 2 hours at 37° C. The tissue is then triturated using fire-polished Pasteur pipettes in MEM supplemented with 10% fetal bovine serum, 0.45% glucose, […] insulin, 0.5 mM glutamine, 100 U/ml penicillin, and 100 μg/ml streptomycin. Cells are plated on 18 mm diameter poly-D-lysine-coated glass coverslips (Fisher 12-545-84 18cir-1D) at a density of 75,000 cells per coverslip for immunofluorescence imaging or in 12-well or 6-well tissue culture plates for immunoblotting studies. […]
Cell preparation for microscopy: Neuroblastoma cells and rat striatal neurons are grown on glass coverslips and treated with poly-D-Lysine. […] The samples are examined by an Olympus CX640 fluorescence microscope, or scanned with a Leica TCS SP confocal laser scanning microscope. Images are digitally captured and recorded with computer. […]

For assay [2], the system named is ERK. Put plainly: ERK activation in SH-SY5Y cells. Type of assay: cell-based, human. The procedure: SH-SY5Y cells are treated with A9, NGF ([…]), or EGF (10 ng/ml) for different durations, including 5, 15, 30, 60, and 120 minutes, to generate time-response curves for A9, NGF, and EGF. The level of ERK activation is measured by immunoblotting for the active (phosphorylated) ERK. The time-point with the maximum ERK response determined above is chosen for immunoprecipitation studies to assess the activation of PI3K, PDK1, and PKB/Akt. Cells are lysed with RIPA^+ buffer and precipitated with polyclonal antibodies for PI3K, PDK1, and PKB/Akt, and then the presence of p-Tyr in the precipitates will be determined by immunoblotting with the specific p-Tyr monoclonal antibody 4G10 (Upstate).

Each structure is given as a SMILES string. Entries after “also recorded” stand apart in the source; their conditions may differ.

Take `CC(C)(C)c1cc(C=C(C#N)C#N)cc(C(C)(C)C)c1O` [A9, tyrphostin A9]: the “ERK1 (p44) activation” value in the assay with ERK1 (p44) is recorded as “activated ERK1 (p44) the most”. Moreover, the “ERK2 (p42) stimulation” value in the assay on ERK2 (p42) is on record as “little stimulation on ERK2 (p42); also recorded: little effect on ERK2”. Further, the “ERK phosphorylation/activation in dopaminergic neurons” value in the assay on ERK [1] is “induced robust ERK activation”; with ERK [1] (listed as tyrphostin A9), “induced ERK phosphorylation”. In addition, in the assay on ERK [2], the “ERK activation in SH-SY5Y, indicated by use of MEK inhibitor PD98059” value was “ERK is activated”.

Values taken from patent US20090012179A1, “Use of Tyrphostins to Stimulate Neurite Outgrowth” (priority 2004, published 2009).
